Experimental data reported in patent publication US20230072860A1, “ISOXAZOLINE OXIME FORMATE COMPOUND, PREPARATION METHOD THEREFOR, HERBICIDAL COMPOSITION AND USE THEREOF” (QINGDAO KINGAGROOT CHEMICAL COMPOUND CO., LTD., priority 2020, published 2023).

Legend:
Assay type in all cases: in vivo
[1] = system: Echinochloa crusgalli, Scirpus juncoides, Bidens tripartita L. and Sagittaria trifolia; experiment: Weed control effect evaluation in rice field; conditions: weeds collected from Heilongjiang Province of China
Protocol: Transplanted rice safety evaluation and weed control effect evaluation in rice field:
Rice field soil was loaded into a 1/1,000,000 ha pot. The seeds of Echinochloa crusgalli, Scirpus juncoides, and Bidens tripartita L. were sowed and gently covered with soil, then left to stand still in greenhouse in the state of 0.5-1 cm of water storage. The tuber of Sagittaria trifolia was planted in the next day or 2 days later. It was kept at 3-4 cm of water storage thereafter. The weeds were treated by dripping the WP or SC water diluents prepared according to the common preparation method of the compounds of the present invention with pipette homogeneously to achieve specified effective amount when Echinochloa crusgalli, Scirpus juncoides, and Bidens tripartita L. reached 0.5 leaf stage and Sagittaria trifolia reached the time point of primary leaf stage.
The fertility condition of Echinochloa crusgalli, Scirpus juncoides, Bidens tripartita L. and Sagittaria trifolia 14 days after the treatment of the compound of the invention and the fertility condition of rice 21 days after the treatment of the compound of the invention respectively with the naked eye. Evaluate the weed control effect with the above activity standard level. Many compounds show excellent activity and selectivity. […]

Amaranthus retroflexus = experiment: Experiment on weeding effect in post-emergence stage; conditions: dose 15 g a.i./ha, fresh weight control rate level
In short: (§1)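 Read-out: weeding effect counted 3 weeks after spraying, averaged from triplicate runs. Greenhouse pot plants, seeds covered by 0.5-2 cm soil, treated 2 weeks after sowing (2-3 leaves) at 500, 250, 125, 60 or 15 g a.i./ha with methyl oleate synergist.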

Setaria viridis = experiment: as above; conditions: dose 15 g a.i./ha, fresh weight control rate level
In short: as §1

Abutilon theophrasti = experiment: as above; conditions: dose 15 g a.i./ha, fresh weight control rate level
In short: as §1

Echinochloa crusgalli = experiment: as above; conditions: dose 15 g a.i./ha, fresh weight control rate level
In short: as §1

Digitaria sanguinalis = experiment: as above; conditions: dose 15 g a.i./ha, fresh weight control rate level
In short: as §1

Veronica didyma Tenore = experiment: as above; conditions: dose 15 g a.i./ha, fresh weight control rate level
In short: as §1

Galium aparine = experiment: as above; conditions: dose 15 g a.i./ha, fresh weight control rate level
In short: as §1

Leptochloa chinensis = experiment: as above; conditions: dose 15 g a.i./ha, fresh weight control rate level
In short: as §1

Eleusine indica = experiment: as above; conditions: dose 15 g a.i./ha, fresh weight control rate level
In short: as §1

Compound | response of the test weeds to common doses [1] | weeding effect in post-emergence stage, Amaranthus retroflexus (level) (Amaranthus retroflexus) | weeding effect in post-emergence stage, Setaria viridis (level) (Setaria viridis) | weeding effect in post-emergence stage, Abutilon theophrasti (level) (Abutilon theophrasti) | weeding effect in post-emergence stage, Echinochloa crusgalli (level) (Echinochloa crusgalli) | weeding effect in post-emergence stage, Digitaria sanguinalis (level) (Digitaria sanguinalis) | weeding effect in post-emergence stage, Veronica didyma Tenore (level) (Veronica didyma Tenore) | weeding effect in post-emergence stage, Galium aparine (level) (Galium aparine) | weeding effect in post-emergence stage, Leptochloa chinensis (level) (Leptochloa chinensis) | weeding effect in post-emergence stage, Eleusine indica (level) (Eleusine indica)
CCOC(=O)c1cnn(C)c1S(=O)(=O)NC(=O)Nc1nc(OC)cc(OC)n1 [Pyrazosulfuron-ethyl] | resistant | – | – | – | – | – | – | – | – | –
Cc1ccc(C=NOC(=O)C2(C)CC(c3cc(-n4c(=O)n(C)c(=S)n(C)c4=O)c(F)cc3Cl)=NO2)o1 (mixture of isomers) [Compound 117] | – | 5 (Level 5: growth control rate is above 85%) | 5 (Level 5: growth control rate is above 85%) | 5 (Level 5: growth control rate is above 85%) | 5 (Level 5: growth control rate is above 85%) | 5 (Level 5: growth control rate is above 85%) | 5 (Level 5: growth control rate is above 85%) | 5 (Level 5: growth control rate is above 85%) | 5 (Level 5: growth control rate is above 85%) | 5 (Level 5: growth control rate is above 85%)
